Key:
Assay in all cases: relative viability (nuclei count vs DMSO), 5 days (fraction); higher = more cells survive
[1] = compound: COC1=CC=C(C=C1)CN2C=CC3=C2C=C(C=C3)C(=O)NO + CC(C)C[C@H](NC(=O)[C@H](Cc1ccccc1)NC(=O)c1cnccn1)B(O)O [Bortezomib] (partner 0.002 µM)
Outline: (§1)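 Nuclei were stained with Hoechst during a one-step fixation (final 0.05% Triton X-100, 1% formaldehyde, 1 ug/ml Hoechst) carried out 5 days after dosing, then counted on 4× images. The cells, lung cancer lines in 1536-well plates, had been dosed by pin tool the day after seeding with one drug alone or a fixed anchor-drug dose plus five library-drug doses (not always all listed) in √10 steps. Relative viability is the nuclei count in treated wells divided by that in vehicle wells, and each value is the median of duplicate plates.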

[2] = compound: COC1=CC=C(C=C1)CN2C=CC3=C2C=C(C=C3)C(=O)NO + C[C@@H](Oc1cc(-c2cnn(C3CCNCC3)c2)cnc1N)c1c(Cl)ccc(F)c1Cl [Crizotinib] (partner 1 µM)
Outline: as §1

Veliparib + AZD7762 = compound: C[C@]1(c2nc3c(C(N)=O)cccc3[nH]2)CCCN1 [Veliparib] + NC(=O)Nc1cc(-c2cccc(F)c2)sc1C(=O)N[C@H]1CCCNC1 [AZD7762] (partner 0.2 µM)
Outline: as §1

Veliparib + Bortezomib = compound: C[C@]1(c2nc3c(C(N)=O)cccc3[nH]2)CCCN1 [Veliparib] + CC(C)C[C@H](NC(=O)[C@H](Cc1ccccc1)NC(=O)c1cnccn1)B(O)O [Bortezomib] (partner 0.002 µM)
Outline: as §1

| Cell Line | relative viability ([1]; first compound 0.08 µM) | relative viability ([1]; first compound 0.253 µM) | relative viability ([1]; first compound 0.8 µM) | relative viability ([1]; first compound 2.53 µM) | relative viability ([1]; first compound 8 µM) | relative viability ([2]; first compound 0.08 µM) | relative viability ([2]; first compound 0.253 µM) | relative viability ([2]; first compound 0.8 µM) | relative viability ([2]; first compound 2.53 µM) | relative viability ([2]; first compound 8 µM) | relative viability (Veliparib + AZD7762; first compound 0.02 µM) | relative viability (Veliparib + AZD7762; first compound 0.06325 µM) | relative viability (Veliparib + AZD7762; first compound 0.2 µM) | relative viability (Veliparib + AZD7762; first compound 0.6325 µM) | relative viability (Veliparib + AZD7762; first compound 2 µM) | relative viability (Veliparib + Bortezomib; first compound 0.02 µM) | relative viability (Veliparib + Bortezomib; first compound 0.06325 µM) | relative viability (Veliparib + Bortezomib; first compound 0.2 µM) | relative viability (Veliparib + Bortezomib; first compound 0.6325 µM) | relative viability (Veliparib + Bortezomib; first compound 2 µM) |
| --- | --- | --- | --- | --- | --- | --- | --- | --- | --- | --- | --- | --- | --- | --- | --- | --- | --- | --- | --- | --- |
| NCI-H23 | 1.04 | 1.02 | 1.14 | 0.975 | 0.594 | 0.481 | 0.708 | 0.445 | 0.343 | 0.401 | 0.35 | 0.216 | 0.201 | 0.277 | 0.28 | 0.887 | 1.04 | 1.02 | 0.883 | 1.08 |
| SK-MES-1 |  |  |  |  |  | 1 | 0.983 | 0.984 | 1 | 0.885 |  |  |  |  |  |  |  |  |  |  |
| NCI-H1651 | 0.923 | 0.887 | 0.923 | 0.888 | 0.857 | 0.853 | 0.928 | 0.859 | 0.82 | 0.826 | 0.455 | 0.424 | 0.419 | 0.46 | 0.412 | 0.924 | 0.883 | 0.908 | 0.918 | 0.876 |
| SK-LU-1 |  | 1.08 | 1.58 | 1.14 | 0.817 | 0.929 | 1.17 | 0.992 | 1.01 | 0.749 |  |  |  |  |  | 1.51 | 1.03 | 0.984 | 1.36 | 0.589 |
| NCI-H727 | 0.834 | 0.98 | 1.09 | 0.908 | 0.755 | 0.578 | 0.945 | 0.98 | 0.71 | 0.592 | 0.627 | 0.495 | 0.784 | 0.681 | 0.603 | 0.381 | 0.754 | 0.755 | 0.82 | 0.815 |
| NCI-H3122 | 1.06 | 1.03 | 1.04 | 1.09 | 0.983 | 0.266 | 0.275 | 0.292 | 0.317 | 0.284 | 0.937 | 1.01 | 0.986 | 0.971 | 1.01 | 1.01 | 0.99 | 0.968 | 0.998 | 0.938 |
| HOP-62 | 0.893 | 0.841 | 0.912 | 0.853 | 0.946 | 0.826 | 0.833 | 1.01 | 1.01 | 0.959 | 0.567 | 0.65 | 0.621 | 0.463 | 0.598 | 0.729 | 1.16 | 0.811 | 0.733 | 0.951 |
| NCI-H520 | 0.218 | 0.722 | 0.64 | 0.751 | 0.525 | 0.321 | 0.834 | 0.776 | 0.723 | 0.736 |  |  |  |  |  | 0.532 | 0.67 | 0.791 | 0.608 | 0.643 |
| COR-L23 | 0.93 | 0.996 | 1.08 | 1.03 | 0.922 | 0.499 | 0.77 | 0.503 | 0.574 | 0.632 |  |  |  |  |  | 0.92 | 0.991 | 1.01 | 0.966 | 0.967 |
| NCI-H2170 |  |  |  |  |  | 0.938 | 1.19 | 1.17 | 1.26 | 1.12 | 0.849 | 0.904 | 0.786 | 0.829 | 0.734 |  |  |  |  |  |

From the supplement of paper PMC10307832
